Assay results published in paper PMC13165411 (Molecules, 2026).
Where “and” joins values, the source holds several entries; their conditions need not be identical. Identical values can stand only once.

Columns and labels:
[1] = Inhibitor stability under oxidative conditions by direct-infusion ESI-MS; format: physicochemical; conditions: 100 μM compound, 44 mM H2O2, 30 min, 37 °C, no HNE
Experimental: Mass spectrometry analysis was performed using an Advion Interchim Scientific expression® Compact Mass Spectrometer (CMS) (Advion Interchim Scientific, Ithaca, NY, USA) equipped with an ESI source. Stock solutions of each inhibitor were prepared in DMSO and diluted in an assay buffer to a final concentration of 100 μM (DMSO ≤ 1% v/v). Aliquots were incubated in the presence or absence of H2O2 (44 mM final concentration) for 30 min at 37 °C, matching the oxidative treatment used in the enzymatic assays. After incubation, samples were diluted 1:1 (v/v) with water containing 0.1% formic acid and directly analyzed in both positive- and negative-ion mode. Mass spectra were analyzed with Mass Express software version 5.1.

[2] = Cytotoxicity on A549 cell monolayers (resazurin reduction assay); format: cell-based; conditions: human, A549 cells (confluent monolayer), 0.1 to 1000 µM, 16 h exposure, read-out: Cell viability (% of untreated control)
Experimental: Cells were obtained from the American Type Culture Collection (ATCC, Manassas, VA, USA) and cultured according to the supplier’s instructions. Cells were maintained in DMEM supplemented with 10% fetal bovine serum (FBS) and seeded into sterile 96-well plates at a density of 1 × 10^5 cells per well, allowing for the formation of a confluent monolayer prior to treatment. After 24 h incubation at 37 °C (5% CO2), the culture medium was replaced with 200 μL of fresh medium containing ten-fold dilutions of the test compounds, ranging from 0.1 to 1000 µM.
After a 16 h exposure period, cell viability was assessed via the resazurin reduction assay. Briefly, 30 μL of a 0.01% resazurin solution (Sigma-Aldrich, St. Louis, MO, USA) was added to each well and incubated for 4 h at 37 °C. The reduction of resazurin to resorufin by metabolically active cells was quantified using a ClarioSTAR microplate reader (BMG Labtech, Ortenberg, Germany), with excitation and emission wavelengths set at 520 nm and 580 nm, respectively. All experiments were performed in triplicate, and cell viability was expressed as a percentage relative to untreated control wells.

[3] = target: T1, HNE under oxidizing conditions (oxidized HNE) (Homo sapiens, UniProt P08246); assay: HNE inhibition assay under oxidizing conditions (HNE pre-incubated with 44 mM H2O2); format: biochemical; conditions: for remaining activity at 100 µM: HNE under oxidizing conditions (44 mM H2O2), maximum inhibitor concentration 100 μM, read-out: Residual Activity at Maximum Inhibitor Concentration (%)
T1 construct: purchased Abcam
T1 sequence (P08246 30-247 limits assumed): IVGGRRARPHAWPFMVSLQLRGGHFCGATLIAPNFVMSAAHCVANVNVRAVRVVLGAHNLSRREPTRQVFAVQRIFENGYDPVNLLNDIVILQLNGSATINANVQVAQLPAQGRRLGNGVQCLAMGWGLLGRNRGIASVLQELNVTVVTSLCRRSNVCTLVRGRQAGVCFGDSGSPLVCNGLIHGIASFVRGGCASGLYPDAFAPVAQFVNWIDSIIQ
Experimental: HNE activity under oxidative conditions was determined using the colorimetric assay described above. Briefly, HNE was pre-incubated with 1 μL of 30% (w/v) H2O2 (final concentration 44 mM in a total reaction volume of 200 μL) for 60 min at 37 °C. The oxidative conditions used in this study were designed to promote cumulative oxidative modifications of HNE rather than to reproduce physiological ROS concentrations, allowing simulation of oxidative stress in chronically inflamed tissues where repeated ROS exposure leads to progressive protein oxidation. The kinetic parameters of oxidized HNE were determined as described above. Subsequently, inhibition assays were performed by initiating the reaction with substrate (final concentration 0.15 mM) in the presence of increasing concentrations of inhibitor (0.1–100 μM). The reaction mixtures were then incubated at 37 °C for 45 min and then terminated by the addition of 20 μL of 0.45 M TCA. Samples were cooled on ice, centrifuged, and analyzed as described in Section 2.4.
Residual enzymatic activity (%) was calculated relative to HNE activity in the absence of inhibitors, set as 100%. The lowest observed activity under the experimental conditions was taken as the maximal inhibition achieved within this assay range.

[4] = target: T2, Human neutrophil elastase (HNE) (Homo sapiens, UniProt P08246); assay: HNE colorimetric inhibition and steady-state kinetics assay (MeOSuc-Ala-Ala-Pro-Val-pNA), native conditions; format: biochemical; conditions: inhibitor 0.1-100 μM; for Mode of inhibition (Lineweaver-Burk plots): steady-state kinetics
T2 construct: purchased Abcam
T2 sequence (P08246 30-267): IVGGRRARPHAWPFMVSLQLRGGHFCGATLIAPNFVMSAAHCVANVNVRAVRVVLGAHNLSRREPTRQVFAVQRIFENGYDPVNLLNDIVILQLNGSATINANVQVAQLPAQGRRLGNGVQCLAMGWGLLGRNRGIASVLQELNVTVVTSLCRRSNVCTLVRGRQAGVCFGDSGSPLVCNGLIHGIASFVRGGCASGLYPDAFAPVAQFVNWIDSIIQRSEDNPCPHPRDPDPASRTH
Experimental: HNE activity was assessed through a colorimetric assay based on the hydrolysis of the synthetic peptide substrate MeOSuc-Ala-Ala-Pro-Val-pNA [37]. To determine the steady-state kinetic parameters, 0.4 μg of HNE (corresponding to a final concentration of approximately 0.05 μM) were added to an incubation buffer consisting of 50 mM Tris-HCl, pH 7.8 containing 500 mM NaCl. The reaction was initiated by adding a fixed volume (20 µL) of intermediate substrate working solutions to the enzyme–buffer mixture, reaching a final reaction volume of 200 µL. These working solutions were prepared by diluting a 20 mM substrate stock solution in DMSO with incubation buffer, ensuring that the final DMSO concentration remained constant at 1% (v/v) across all tested substrate concentrations (ranging from 0.075 to 2.4 mM). This approach was applied to all samples, including blanks, to maintain a uniform solvent environment. The mixtures were incubated at 37 °C for 45 min. […] The reaction was then quenched with 20 μL of 0.45 M trichloroacetic acid (TCA). After cooling on ice for 30 min, the samples were centrifuged at 11,500 rpm for 10 min to remove precipitated proteins. The concentration of p-nitroaniline (p-NA) released into the supernatant was determined by measuring the absorbance at 410 nm. All assays were performed in triplicate, and the kinetic parameters were determined by fitting the experimental data to the Michaelis–Menten equation using GraphPad Prism 8.0 software (GraphPad Software, San Diego, CA, USA).
Stock solutions of both inhibitors were prepared in DMSO and diluted with incubation buffer to obtain intermediate working solutions. A fixed volume of these working solutions was added to each reaction mixture so that the final DMSO concentration remained constant at 1% (v/v) across all inhibitor concentrations. […]
Subsequently, the inhibition constants (Ki) were determined independently from IC50 values by performing steady-state kinetic assays at varying concentrations of both substrate and inhibitors. […]

Cc1c(-c2ccnn2C)cc(C(=O)NCc2ccc(S(C)(=O)=O)cn2)c(=O)n1-c1cccc(C(F)(F)F)c1 [Alvelestat]
Chemical stability under oxidizing conditions (ESI-MS spectra vs untreated control) [1]: no additional peaks
viability at 16 h [2]: ~100%
IC50 ([3]; HNE pre-incubated with 44 mM H2O2, 60 min, 37 °C, substrate 0.15 mM): 4000 ± 410 nM
remaining activity at 100 µM [3]: < 20%
Mode of inhibition (Lineweaver-Burk plots) [4]: competitive inhibition
IC50 ([4]; substrate 0.15 mM, 37 °C, 45 min, read-out: IC50 against HNE activity): 2800 nM and 2840 nM

CC(C)(C)C(=O)Oc1ccc(S(=O)(=O)Nc2ccccc2C(=O)NCC(=O)O)cc1 [Sivelestat]
Chemical stability under oxidizing conditions (ESI-MS spectra vs untreated control) [1]: no additional peaks
viability at 16 h [2]: ~100%
Inhibition of oxidized HNE at the highest tested concentration ([3]; 100 μM inhibitor, HNE pre-treated with 44 mM H2O2): failed to achieve significant inhibition
remaining activity at 100 µM [3]: > 80%
Mode of inhibition (Lineweaver-Burk plots) [4]: competitive inhibition
